Measured values as given in patent publication US9586947B2, “Imidazoline derivatives, preparation methods thereof, and their applications in medicine” (priority 2012, dated 2017).
Where two headings read alike, the source gives them in different places.

Experiments:
[1] = system: PSA secretion of LNCaP cells; test: Inhibitory activity on PSA secretion of LNCaP cells; type: cell-based; conditions: Homo sapiens, 96 h, read-out: IC50 (inhibition of PSA secretion of LNCaP cells)
Procedure: The following in vitro assay was performed to determine the activity of the compounds of the present invention for inhibiting prostate specific antigen (PSA) secretion of LNCaP cells.
(11). Testosterone culture medium: RIPM 1640 culture medium, 10% CS-FBS, 1% Pen Strep, 1 nM testosterone
LNCaP cells were subcultured in cell culture medium, resuspended in active carbon culture medium, and then inoculated into a 96-well plate (100 μl/well) with an inoculation density of 5×10^4 cells/well.
The test compounds were dissolved in DMSO (dimethyl sulfoxide) and prepared as a 10 mM stock solution. When used, the stock solution was diluted with 5×DMSO and then diluted with a threefold gradient to obtain 8 gradient concentrations. Then, the 8 gradient concentrations were each diluted with 20× testosterone culture medium, in order to ensure DMSO concentration in each culture system was 0.5%. Diluted test compounds remained to be tested.
10 μl of diluted test compounds were added to a 96-well plate and mixed gently. 10 μl of 0.5% DMSO diluted with active carbon culture medium was added to the blank group, and 10 μl of 0.5% DMSO diluted with testosterone culture medium was added to the control group. The 96-well plate was cultured in an incubator under the conditions of 37° C. and 5% CO2.
After 4 days of incubation, 60 μl of cell cultural supernatants were collected, and the OD450 value per well was measured on a NOVO Star microplate reader using PSA kit (Abnova, KA0208).
(§1) IC50 values were calculated from the data of the inhibition rates of the test compounds at various concentrations.

[2] = system: LNCaP cells; test: Proliferation inhibition of LNCaP cells (CCK-8); type: cell-based; conditions: Homo sapiens, 144 h, cultured 3 + 3 days, CCK-8, OD at 450 nm
Procedure: The following in vitro assay was performed to determine the activity of the compounds of the present invention for inhibiting the proliferation of LNCaP cells.
(1). Cell counting reagent CCK-8 (DOJINDO, CK04)
See experimental procedure from Test Example 1.
After LNCaP cells were cultured for 3 days, the culture medium, test compounds, blank group, and control group were renewed with half of the liquid volume, and were cultured for another 3 days. Then, all 96-well plates were mixed gently with 10 μl of CCK-8 and cultured in an incubator for 2-3 hours under the conditions of 37° C. and 5% CO2. The OD value per well was measured at 450 nm on a Victor3 microplate reader.
as §1

[3] = Pharmacokinetics assay in rats, intragastric administration; type: in vivo; conditions: Sprague-Dawley, rat, in vivo, po, male SD rats, 5 mg/kg; for Vd/F: read-out: Apparent Distribution Volume Vz/F; for AUC: read-out: Area Under Curve AUC; for CL/F: read-out: Clearance CLz/F; for half-life: read-out: Half-Life T½ (converted); for MRT: read-out: Mean Residence Time MRT; for Cmax: read-out: Plasma Conc. Cmax
Procedure: Male rats were used as test animals. The compounds of Example 6, Example 9, Example 11, Example 13, Example 15, Example 16, Example 17, Example 44, and Example 45 were administered intragastrically to rats to determine the drug concentration in plasma at different time points by LC/MS/MS method. The pharmacokinetic behavior of the compounds of the present invention was studied and evaluated in rats.
27 healthy adult male Sprague-Dawley (SD) rats, purchased from SINO-BRITISH SIPPR/BK LAB. ANIMAL LTD., CO, Certificate No.: SCXK (Shanghai) 2008-0016, were divided into 9 groups, with 3 rats in each group.
The appropriate amount of test compounds was weighed and mixed with 0.5% CMC-Na to prepare a 0.5 mg/mL suspension by an ultrasonic method.
After an overnight fast, 27 SD rats were divided into 9 groups, and administered the compounds intragastrically at a dose of 5.0 mg/kg and an administration volume of 10 mL/kg.
Compounds of Example 6, Example 9, Example 11, Example 13, Example 15, Example 16, Example 17, Example 44, and Example 45 were administered intragastrically to rats. Blood samples (0.1 mL) were taken from the orbital sinus before administration, and at 0.5 h, 1.0 h, 2.0 h, 3.0 h, 4.0 h, 6.0 h, 8.0 h, 11.0 h, and 24.0 h after administration, stored in heparinized tubes, and centrifuged for 5 minutes at 3,500 rpm to separate blood plasma. The plasma samples were stored at −20° C. The rats were fed 2 hours after administration.
The concentration of the different test compounds in rat plasma after intragastrically administering the test compounds was determined by LC-MS/MS method. The linearity of the method is 1.00-2000 ng/ml. Plasma samples were analyzed after protein precipitation was accomplished by the addition of methanol.

[4] = LNCaP cells, 1 nM testosterone medium, 4 days of incubation, PSA kit OD450

## CC1(C)C(=O)N(c2ccc(C#N)c(C(F)(F)F)c2)C(=S)N1c1ccc(O[C@@H]2COC[C@H]2O)c(F)c1 (racemic) [Example 7, 4-(3-(3-Fluoro-4-(((3R,4R/3S,4S)-4-hydroxytetrahydrofuran-3-yl)oxy)phenyl)-4,4-dimethyl-5-oxo-2-thioxoimidazolidin-1-yl)-2-(trifluoromethyl)benzonitrile]
[1]; LNCaP
  IC50: 23 nM

## CC1(C)C(=O)N(c2ccc(C#N)c(C(F)(F)F)c2)C(=S)N1c1ccc(O[C@@H]2COC[C@H]2O)cc1 (racemic) [Example 14, 4-(3-(4-(((3R,4R/3S,4S)-4-Hydroxytetrahydrofuran-3-yl)oxy)phenyl)-4,4-dimethyl-5-oxo-2-thioxoimidazolidin-1-yl)-2-(trifluoromethyl)benzonitrile]
[1]; LNCaP
  IC50: 19 nM

## CC1(C)C(=O)N(c2ccc(C#N)c(C(F)(F)F)c2)C(=S)N1c1ccc(O[C@@H]2CCOC2)c(F)c1 [Example 1, (R)-4-(3-(3-Fluoro-4-((tetrahydrofuran-3-yl)oxy)phenyl)-4,4-dimethyl-5-oxo-2-thioxoimidazolidin-1-yl)-2-(trifluoromethyl)benzonitrile]
[1]; [4]
  IC50: 34 nM
[2]
  IC50: 195 nM

## CC1(C)C(=O)N(c2ccc(C#N)c(C(F)(F)F)c2)C(=S)N1c1ccc(O[C@H]2CCOC2)c(F)c1 [Example 2, (S)-4-(3-(3-Fluoro-4-((tetrahydrofuran-3-yl)oxy)phenyl)-4,4-dimethyl-5-oxo-2-thioxoimidazolidin-1-yl)-2-(trifluoromethyl)benzonitrile]
[1]; [4]
  IC50: 45 nM
[2]
  IC50: 97 nM

## CC1(C)C(=O)N(c2ccc(C#N)c(C(F)(F)F)c2)C(=S)N1c1ccc(OC(F)F)c(F)c1 [Example 3, 4-(3-(4-(Difluoromethoxy)-3-fluorophenyl)-4,4-dimethyl-5-oxo-2-thioxoimidazolidin-1-yl)-2-(trifluoromethyl)benzonitrile]
[1]; [4]
  IC50: 35 nM
[2]
  IC50: 46 nM

## CC1(C)C(=O)N(c2ccc(C#N)c(C(F)(F)F)c2)C(=S)N1c1ccc(OC2CCOCC2)c(F)c1 [Example 4, 4-(3-(3-Fluoro-4-((tetrahydro-2H-pyran-4-yl)oxy)phenyl)-4,4-dimethyl-5-oxo-2-thioxoimidazolidin-1-yl)-2-(trifluoromethyl)benzonitrile]
[1]; [4]
  IC50: 93 nM

## CC1(C)C(=O)N(c2ccc(C#N)c(C(F)(F)F)c2)C(=S)N1c1ccc(OCC2(O)CC2)c(F)c1 [Example 5, 4-(3-(3-Fluoro-4-((1-hydroxycyclopropyl)methoxy)phenyl)-4,4-dimethyl-5-oxo-2-thioxoimidazolidin-1-yl)-2-(trifluoromethyl)benzonitrile]
[1]; [4]
  IC50: 124 nM
[2]
  IC50: 87 nM

## CC1(C)C(=O)N(c2ccc(C#N)c(C(F)(F)F)c2)C(=S)N1c1ccc(OCC2(N)CC2)nc1 [Example 11, 4-(3-(6-((1-Aminocyclopropyl)methoxy)pyridin-3-yl)-4,4-dimethyl-5-oxo-2-thioxoimidazolidin-1-yl)-2-(trifluoromethyl)benzonitrile]
[1]; LNCaP
  IC50: 35 nM
[3]
  Vd/F: 9.94 ± 0.633 L/kg
  AUC: 11400 ± 1380 ng·h/mL
  CL/F: 7.35 ± 0.87 mL/min/kg
  half-life: 15.8 ± 2.2 h
  MRT: 23.2 ± 2.9 h
  Cmax: 430 ± 14 ng/mL

## CC1(C)C(=O)N(c2ccc(C#N)c(C(F)(F)F)c2)C(=S)N1c1ccc(O[C@H]2COC[C@@H]2O)cc1 [Example 16, 4-(3-(4-(((3S,4S)-4-hydroxytetrahydrofuran-3-yl)oxy)phenyl)-4,4-dimethyl-5-oxo-2-thioxoimidazolidin-1-yl)-2-(trifluoromethyl)benzonitrile]
[1]; LNCaP
  IC50: 12 nM
[3]
  Vd/F: 3.59 ± 0.662 L/kg
  AUC: 23300 ± 5900 ng·h/mL
  CL/F: 3.71 ± 0.84 mL/min/kg
  half-life: 11.3 ± 1.3 h
  MRT: 18.4 ± 2.6 h
  Cmax: 971 ± 147 ng/mL

## CC1(C)C(=O)N(c2ccc(C#N)c(C(F)(F)F)c2)C(=S)N1c1ccc(OCCO)cc1 [Example 17, 4-(3-(4-(2-Hydroxyethoxy)phenyl)-4,4-dimethyl-5-oxo-2-thioxoimidazolidin-1-yl)-2-(trifluoromethyl)benzonitrile]
[1]; LNCaP
  IC50: 24 nM
[3]
  Vd/F: 3.76 ± 0.591 L/kg
  AUC: 12200 ± 1520 ng·h/mL
  CL/F: 6.88 ± 0.89 mL/min/kg
  half-life: 6.31 ± 0.5 h
  MRT: 10.8 ± 0.8 h
  Cmax: 864 ± 86 ng/mL

## CC1(C)C(=O)N(c2ccc(C#N)c(C(F)(F)F)c2)C(=S)N1c1ccc(OC2CCNCC2)c(F)c1 [Example 19, 4-(3-(3-Fluoro-4-((piperidin-4-yl)oxy)phenyl)-4,4-dimethyl-5-oxo-2-thioxoimidazolidin-1-yl)-2-(trifluoromethyl)benzonitrile]
[1]; [4]
  IC50: 94 nM
[2]
  IC50: 194 nM

## CN1CC[C@H](Oc2ccc(N3C(=S)N(c4ccc(C#N)c(C(F)(F)F)c4)C(=O)C3(C)C)cc2F)C1 [Example 27, (S)-4-(3-(3-Fluoro-4-((1-methylpyrrolidin-3-yl)oxy)phenyl)-4,4-dimethyl-5-oxo-2-thioxoimidazolidin-1-yl)-2-(trifluoromethyl)benzonitrile]
[1]; [4]
  IC50: 83 nM

## Cc1cc(N2C(=O)C(C)(C)N(c3ccc(OCC4(N)CC4)c(F)c3)C2=S)ccc1C#N [Example 38, 4-(3-(4-((1-Aminocyclopropyl)methoxy)-3-fluorophenyl)-4,4-dimethyl-5-oxo-2-thioxoimidazolidin-1-yl)-2-methylbenzonitrile]
[1]; [4]
  IC50: 33 nM

## CC(=O)N1CC(O)C(Oc2ccc(N3C(=S)N(c4ccc(C#N)c(C(F)(F)F)c4)C(=O)C3(C)C)cc2F)C1 (stereo not shown) [Example 46, 4-(3-(4-((1-Acetyl-4-hydroxypyrrolidin-3-yl)oxy)-3-fluorophenyl)-4,4-dimethyl-5-oxo-2-thioxoimidazolidin-1-yl)-2-(trifluoromethyl)benzonitrile]
[1]; [4]
  IC50: 47 nM

## CN1CC(O)C(Oc2ccc(N3C(=S)N(c4ccc(C#N)c(C(F)(F)F)c4)C(=O)C3(C)C)cc2F)C1 (stereo not shown) [Example 47, 4-(3-(3-Fluoro-4-((4-hydroxy-1-methylpyrrolidin-3-yl)oxy)phenyl)-4,4-dimethyl-5-oxo-2-thioxoimidazolidin-1-yl)-2-(trifluoromethyl)benzonitrile]
[1]; [4]
  IC50: 21 nM

## CC1(C)C(=O)N(c2ccc(C#N)c(C(F)(F)F)c2)C(=S)N1c1ccc(OC[C@@H](O)CO)c(F)c1 [Example 49, (S)-4-(3-(4-(2,3-Dihydroxypropoxy)-3-fluorophenyl)-4,4-dimethyl-5-oxo-2-thioxoimidazolidin-1-yl)-2-(trifluoromethyl)benzonitrile]
[1]; LNCaP
  IC50: 35 nM

## CC1(C)C(=O)N(c2ccc(C#N)c(C(F)(F)F)c2)C(=S)N1c1ccc(OC[C@H](O)CO)c(F)c1 [Example 50, (R)-4-(3-(4-(2,3-Dihydroxypropoxy)-3-fluorophenyl)-4,4-dimethyl-5-oxo-2-thioxoimidazolidin-1-yl)-2-(trifluoromethyl)benzonitrile]
[1]; LNCaP
  IC50: 43 nM
